This is an account of results in US12391692B2, “Spiro ring-containing quinazoline compound” (WIGEN BIOMEDICINE TECHNOLOGY (SHANGHAI) CO., LTD., priority 2020, dated 2025).

The subject of assay [1] is pERK level in H358 cells. As to the kind of experiment: pERK and ERK protein content assay in H358 cells (ELISA). The format is cell-based. Conditions: Homo sapiens, NCI-H358, pERK/ERK ratio vs DMSO group, compound 1 μM, 24 h, read-out: Inhibition rate (%). As to the method: H358 cells were seeded in a 24-well plate. After one day of growth, a test compound (at a concentration of 1 μM) was added. After 24 h of action of the compound, the cells were lysed, and the cell lysate was transferred to a 96-well ELISA plate. The levels of pERK and ERK in the lysate were measured using an ELISA kit (abcam 176660). The ratio of pERK to ERK was calculated and compared with that of the DMSO group, and the percentage of inhibition of pERK activity by the compound was calculated.
For orientation: ELISA stands for enzyme-linked immunosorbent assay.

Assay [2] has as its system H358 cells. Briefly: Antiproliferative activity against H358 cells (Cell Titer Glow, ultra-low attachment plate). The format is cell-based. To be noted: Homo sapiens, NCI-H358, 72 h, three days after addition of compound. The method, then: 2500 H358 cells were seeded in a 96-well ultra-low attachment plate (corning, 7007). After one day of growth, a serially diluted compound (a maximum concentration of 5 μM, 5-fold dilution, a total of five doses) was added. Three days after the addition of the compound, Cell Titer Glow (Promega, G9681) was added to evaluate pellet growth, and the IC50 value was calculated.
Background: In ATP-based viability assays light output follows the ATP content of the culture.

Some results are limits rather than exact numbers.

For `C=CC(=O)N1CC2(CCN(c3nc(N4CC(CN(C)C)C4)nc4c(OCC(F)(F)F)c(-c5c(C)ccc6[nH]ncc56)c(C5CC5)cc34)CC2)C1` [Compound 1, 1-(7-(6-cyclopropyl-2-(3-((dimethylamino)methyl)azetidin-1-yl)-7-(5-methyl-1H-indazol-4-yl)-8-(2,2,2-trifluoroethoxy)quinazolin-4-yl)-2,7-diazaspiro[3.5]non-2-yl)prop-2-en-1-one], the inhibition at 1 µM in assay [1] is more than 90%. The same molecule had an IC50 in assay [2] of less than 300 nM.
In the case of `C=CC(=O)N1CC2(CCN(c3nc(N4CC(O)C4)nc4c(OCC(F)(F)F)c(-c5c(C)ccc6[nH]ncc56)c(C5CC5)cc34)CC2)C1` [Compound 2], in assay [1], the inhibition at 1 µM was more than 90%. In assay [2], this molecule gave an IC50 of less than 300 nM.
For `C=CC(=O)N1CC2(CCN(c3nc(N4CC(CO)C4)nc4c(OCC(F)(F)F)c(-c5c(C)ccc6[nH]ncc56)c(C5CC5)cc34)CC2)C1` [Compound 3], in that order: 50 to 90% and 300 to 1000 nM.
In the same order, the values of `C=CC(=O)N1CC2(CCN(c3nc(N4CC(CN(C)CCO)C4)nc4c(OCC(F)(F)F)c(-c5c(C)ccc6[nH]ncc56)c(C5CC5)cc34)CC2)C1` [Compound 4] are more than 90% and less than 300 nM.
For `C=CC(=O)N1CC2(CCN(c3nc(N4CC(CN(C)CCOC)C4)nc4c(OCC(F)(F)F)c(-c5c(C)ccc6[nH]ncc56)c(C5CC5)cc34)CC2)C1` [Compound 5], in that order: more than 90% and less than 300 nM.
As for `C=CC(=O)N1CC2(CCN(c3nc(N4CC(CN5CCCC5)C4)nc4c(OCC(F)(F)F)c(-c5c(C)ccc6[nH]ncc56)c(C5CC5)cc34)CC2)C1` [Compound 7], in assay [1], the inhibition at 1 µM is more than 90%. The IC50 in assay [2] was less than 300 nM.
In the same order, the values of `C=CC(=O)N1CC2(CCN(c3nc(N4CC(CN5CCOCC5)C4)nc4c(OCC(F)(F)F)c(-c5c(C)ccc6[nH]ncc56)c(C5CC5)cc34)CC2)C1` [Compound 8] are 50 to 90% and 300 to 1000 nM.
For `C=CC(=O)N1CC2(CCN(c3nc(N4CC(COC)C4)nc4c(OCC(F)(F)F)c(-c5c(C)ccc6[nH]ncc56)c(C5CC5)cc34)CC2)C1` [Compound 9], in that order: more than 90% and less than 300 nM.
In the same order, the values of `C=CC(=O)N1CC2(CCN(c3nc(N4CC(COC5CC5)C4)nc4c(OCC(F)(F)F)c(-c5c(C)ccc6[nH]ncc56)c(C5CC5)cc34)CC2)C1` [Compound 10] are more than 90% and less than 300 nM.
For `C=CC(=O)N1CC2(CCN(c3nc(N4CC(COC5CN(C)C5)C4)nc4c(OCC(F)(F)F)c(-c5c(C)ccc6[nH]ncc56)c(C5CC5)cc34)CC2)C1` [Compound 11], the inhibition at 1 µM in assay [1] is more than 90%. The IC50 in assay [2] is less than 300 nM.
In the same order, the values of `C=CC(=O)N1CC2(CCN(c3nc(N4CC(OC5CC5)C4)nc4c(OCC(F)(F)F)c(-c5c(C)ccc6[nH]ncc56)c(C5CC5)cc34)CC2)C1` [Compound 12] are more than 90% and less than 300 nM.
For `C=CC(=O)N1CC2(CCN(c3nc(N4CC(OC5CCC5)C4)nc4c(OCC(F)(F)F)c(-c5c(C)ccc6[nH]ncc56)c(C5CC5)cc34)CC2)C1` [Compound 13], in that order: more than 90% and less than 300 nM.
For `C=CC(=O)N1CC2(CCN(c3nc(N4CC(OC5CCN(C)CC5)C4)nc4c(OCC(F)(F)F)c(-c5c(C)ccc6[nH]ncc56)c(C5CC5)cc34)CC2)C1` [Compound 15], in that order: more than 90% and less than 300 nM.
Take `C=CC(=O)N1CC2(CCN(c3nc(N4CCC(OC5CN(C)C5)CC4)nc4c(OCC(F)(F)F)c(-c5c(C)ccc6[nH]ncc56)c(C5CC5)cc34)CC2)C1` [Compound 16]: the inhibition at 1 µM in assay [1] is more than 90%. The molecule further had an IC50 in assay [2] of less than 300 nM.
In the case of `C=CC(=O)N1CC2(CCN(c3nc(N4CC(OCC5CC5)C4)nc4c(OCC(F)(F)F)c(-c5c(C)ccc6[nH]ncc56)c(C5CC5)cc34)CC2)C1` [Compound 17], in assay [1], the inhibition at 1 µM was more than 90%. The molecule further showed an IC50 in assay [2] of less than 300 nM.
For `C=CC(=O)N1CC2(CCN(c3nc(N4CC(OCC5COC5)C4)nc4c(OCC(F)(F)F)c(-c5c(C)ccc6[nH]ncc56)c(C5CC5)cc34)CC2)C1` [Compound 18], in that order: more than 90% and less than 300 nM.
In the same order, the values of `C=CC(=O)N1CC2(CCN(c3nc(N4CC(OCC5CN(C)C5)C4)nc4c(OCC(F)(F)F)c(-c5c(C)ccc6[nH]ncc56)c(C5CC5)cc34)CC2)C1` [Compound 19] are more than 90% and less than 300 nM.
For `C=CC(=O)N1CC2(CCN(c3nc(N4CC(N(C)CC#N)C4)nc4c(OCC(F)(F)F)c(-c5c(C)ccc6[nH]ncc56)c(C5CC5)cc34)CC2)C1` [Compound 20], in that order: 50 to 90% and 300 to 1000 nM.
Take `C=CC(=O)N1CC2(CCN(c3nc(N4CC(N(C)CCO)C4)nc4c(OCC(F)(F)F)c(-c5c(C)ccc6[nH]ncc56)c(C5CC5)cc34)CC2)C1` [Compound 21]: the inhibition at 1 µM in assay [1] is more than 90%. Also, in assay [2], the IC50 is less than 300 nM.
For `C=CC(=O)N1CC2(CCN(c3nc(N4CC(N(CC)CCO)C4)nc4c(OCC(F)(F)F)c(-c5c(C)ccc6[nH]ncc56)c(C5CC5)cc34)CC2)C1` [Compound 22], in that order: more than 90% and less than 300 nM.
Turning to `C=CC(=O)N1CC2(CCN(c3nc(N4CC(N(C)CCCO)C4)nc4c(OCC(F)(F)F)c(-c5c(C)ccc6[nH]ncc56)c(C5CC5)cc34)CC2)C1` [Compound 23], the inhibition at 1 µM in assay [1] is more than 90%. Further, the IC50 in assay [2] is less than 300 nM.
For `C=CC(=O)N1CC2(CCN(c3nc(N4CC(N(CC)CCCO)C4)nc4c(OCC(F)(F)F)c(-c5c(C)ccc6[nH]ncc56)c(C5CC5)cc34)CC2)C1` [Compound 24], in that order: more than 90% and less than 300 nM.
In the same order, the values of `C=CC(=O)N1CC2(CCN(c3nc(N4CC(N5CCSCC5)C4)nc4c(OCC(F)(F)F)c(-c5c(C)ccc6[nH]ncc56)c(C5CC5)cc34)CC2)C1` [Compound 25] are more than 90% and 300 to 1000 nM.
For `C=CC(=O)N1CC2(CCN(c3nc(N4CC(N5CC[S+]([O-])CC5)C4)nc4c(OCC(F)(F)F)c(-c5c(C)ccc6[nH]ncc56)c(C5CC5)cc34)CC2)C1` [Compound 26], in that order: 50 to 90% and 300 to 1000 nM.
On to `C=CC(=O)N1CC2(CCN(c3nc(N4CC(N5CCS(=O)(=O)CC5)C4)nc4c(OCC(F)(F)F)c(-c5c(C)ccc6[nH]ncc56)c(C5CC5)cc34)CC2)C1` [Compound 27], for which the inhibition at 1 µM in assay [1] is 50 to 90%. The IC50 in assay [2] was 300 to 1000 nM.
In the same order, the values of `C=CC(=O)N1CC2(CCN(c3nc(N4CC(N5CC6(CCC6)C5)C4)nc4c(OCC(F)(F)F)c(-c5c(C)ccc6[nH]ncc56)c(C5CC5)cc34)CC2)C1` [Compound 29] are more than 90% and less than 300 nM.
In the same order, the values of `C=CC(=O)N1CC2(CCN(c3nc(N4CC(N5CC6(COC6)C5)C4)nc4c(OCC(F)(F)F)c(-c5c(C)ccc6[nH]ncc56)c(C5CC5)cc34)CC2)C1` [Compound 30] are more than 90% and less than 300 nM.
For `C=CC(=O)N1CC2(CCN(c3nc(N4CC(N5CC6(CSC6)C5)C4)nc4c(OCC(F)(F)F)c(-c5c(C)ccc6[nH]ncc56)c(C5CC5)cc34)CC2)C1` [Compound 31], in that order: more than 90% and less than 300 nM.

For orientation: inhibition means the relative decrease from the control value, in per cent. In general, IC50 refers to the concentration that gives 50% inhibition. Lower therefore signals higher potency.
